Test results reported in US10442773B2, “Amorphous letermovir and solid pharmaceutical formulations thereof for oral administration” (AICURIS ANTI-INFECTIVE CURES GMBH, priority 2013, dated 2019).
Converted amounts (≈) assume the structure as drawn. Like-named read-outs stand apart in the source and are kept apart here.

Legend:
[1] = system: HCMV isolates; assay: Antiviral activity against HCMV isolates; type: cell-based, human cytomegalovirus; details: Human betaherpesvirus 5; HCMV isolates of the respective individual; SD 0.0001 to 0.001
From the text: The term “pharmaceutical activity” of Letermovir denotes the antiviral activity against HCMV isolates of the respective individual, being in the range of EC50±SD of 0.0005 to 0.005±0.0001 to 0.001.

[2] = Absolute bioavailability, Cohort 1 of a clinical trial (oral vs intravenous); type: in vivo; details: human, plasma; single 30 mg oral dose (amorphous) vs 30 mg intravenous 30 min infusion; based on AUC0-last; 12 healthy female subjects
Experimental: Assessment of absolute bioavailability after oral administration of 30 mg Letermovir in the amorphous state versus a 30 minute intravenous administration of 30 mg Letermovir in 150 ml saline solution 0.9%. Cohort 1 of the trial was conducted in an open-label, randomized (to treatment sequence), single center cross-over design (2 periods) in 12 healthy female subjects. Subjects received a single intravenous dose of 30 mg Letermovir via a 30-minute infusion in one period (“reference”) and a single oral dose of 30 mg Letermovir in the amorphous state in the other period (“test”). In both periods subjects were in-house from Day −1 to Day 4 (72 h after dosing on Day 1). The washout period between the periods (i.e. the dosing) was at least one week. The 30 mg dose in Cohort 1 was evaluated (see FIGS. 7a and 7b). Plasma concentrations of Letermovir were determined using a lower limit of quantification (LLOQ) of 1.00 ng/mL. Pharmacokinetic parameters AUC0-∞, Cmax, F, AUC0-last, tmax, λZ, t1/2z, CL/F, CL, Vd/F, Vd, MRT, AUC0-∞/D, Cmax/D, AUC0-last/D for Cohort 1 were calculated in WinNonlin using the actual sampling times. Descriptive statistics were calculated for the plasma concentrations and for the derived pharmacokinetic parameters. Statistics included sample size (n), mean, standard deviation (SD), percentage of coefficient of variation (% CV), geometric mean, median, minimum, and maximum. […]

[3] = Ionization characteristics (isoelectric point, pKa); type: physicochemical
From the text: The expressions “zwitterionic, zwitterionic properties, and zwitterion” in the context of the present invention for the API Letermovir means that a Letermovir molecule is a neutral molecule having a positive and a negative electrical charge at different locations within the same molecule. Accordingly, the API Letermovir has a charge, which changes with pH when measured in an electric field. […] The net charge is influenced by the pH value. Letermovir has a fixed value of isoelectric point (pI) being the pH value at which the number of cations is equal to that of anions. At this point (pI=5.55) the net electric charge of Letermovir is always zero. The solubility class boundary according to the BCS is based on the highest dose strength of the IR product. By using the BCS approach the equilibrium solubility of amorphous Letermovir under physiological pH conditions is determined. The pH-solubility profile of amorphous Letermovir was determined at 37±1° C. in aqueous media with a pH in the range of 1-7.5. A sufficient number of pH conditions were evaluated to accurately define the pH-solubility profile of amorphous Letermovir. The number of pH conditions for the solubility determination was based on the ionization characteristics of Letermovir. A minimum of three replicate determinations of solubility in each pH condition was conducted.

[4] = pH-solubility profile of amorphous Letermovir (BCS approach); type: physicochemical; details: standard buffer solutions, thermodynamic from solid
Experimental: The inventors conducted a solubility study of amorphous Letermovir to investigate its biopharmaceutical status by standardized measures. The inventors orientated on the guidelines of the established Biopharmaceutics Classification System (BCS). The solubility class boundary according to the BCS is based on the highest dose strength of the IR product. By using the BCS approach the equilibrium solubility of amorphous Letermovir under physiological pH conditions is determined. The pH-solubility profile of amorphous Letermovir was determined at 37±1° C. in aqueous media with a pH in the range of 1-7.5. A sufficient number of pH conditions were evaluated to accurately define the pH-solubility profile of amorphous Letermovir. The number of pH conditions for the solubility determination was based on the ionization characteristics of Letermovir. A minimum of three replicate determinations of solubility in each pH condition was conducted. The highest dose of Letermovir is exemplarily 240 mg. When dissolved in 250 ml this equates to a concentration of 0.96 mg/ml.

[5] = Long-term stability study of Letermovir precipitate tablets; type: physicochemical
Experimental: Long-term stability studies were conducted with testing of color, dissolution, degradation products and assay at regular intervals to confirm the stability of amorphous Letermovir precipitate tablets.
In addition, disintegration, water content and hardness/breaking load were conducted as informative tests.
Samples of one batch of each dose strength of Letermovir precipitate tablets, packaged in 45 ml HDPE bottles with child-resistant closures were stored at 25° C./60% relative humidity and at 40° C./75% relative humidity. Stability data after 36 months storage were reported.
Additional forced degradation studies were conducted. One batch per dose strength of Letermovir was stored at 60° C. for 3 months. In order to assess the hydrolytic stability, one batch of the 20 mg dose strength was stored with open storage at 40° C./75% relative humidity for 3 months.

Structure (SMILES): COc1cccc(N2CCN(C3=Nc4c(F)cccc4[C@H](CC(=O)O)N3c3cc(C(F)(F)F)ccc3OC)CC2)c1 [Letermovir, (S)-{8-Fluoro-2-[4-(3-methoxyphenyl)-1-piperazinyl]-3-[2-methoxy-5-(trifluoromethyl)phenyl]-3,4-dihydro-4-quinazolinyl}acetic acid]
- EC50 [1]: 0.5 to 5 nM
- bioavailability [2]: 76%
- pKa1 [3]: 3.9 (pKa1)
- isoelectric point (pI) ([3]; pH at which net electric charge is zero): 5.55
- solubility at 24 h ([4]; 37 °C, aqueous buffer, pH range 1 to 7.5, summary of Table 3, read-out: solubility of Letermovir over the pH-range of 1 to 7.5): ≥ 400 µg/mL
- solubility at 24 h ([4]; aqueous buffer, pH 2.9 (pKa1 − 1), 37°C±1°C, standard buffer, stirring 24 hours, read-out: Letermovir solubility): 800 µg/mL (≈ 1400 µM)
- solubility at 24 h ([4]; aqueous buffer, pH 3.9 (pKa1), 37°C±1°C, standard buffer, stirring 24 hours, read-out: Letermovir solubility): 400 µg/mL (≈ 699 µM)
- solubility at 24 h ([4]; aqueous buffer, pH 4.9 (pKa1 + 1), 37°C±1°C, standard buffer, stirring 24 hours, read-out: Letermovir solubility): 400 µg/mL
- solubility at 24 h ([4]; aqueous buffer, pH 7.5, 37°C±1°C, standard buffer, stirring 24 hours, read-out: Letermovir solubility): > 1000 µg/mL
- solubility at 24 h ([4]; simulated gastric fluid, pH 1, 37°C±1°C, standard buffer, stirring 24 hours, read-out: Letermovir solubility): > 900 µg/mL
- stability under long-term and accelerated storage conditions ([5]; 25°C/60% relative humidity and 40°C/75% relative humidity, 36 months): stable
- shelf-life assigned ([5]; real time data at 25°C/60% RH): 36 months
